Source: patent publication US12441734B2, “Ferroptosis inhibitor and use therefor” (JICHI MEDICAL UNIVERSITY, priority 2021, dated 2025)
“Also recorded” adds a separate entry of the source.

Legend:
[1] = test system: Kearns-Sayre syndrome (KSS) patient cells (ME130-1); assay: Test I: suppression of RSL-3-induced cell death, KSS patient cells; format: cell-based, human; settings: 10-140 nM RSL-3 coadded with drug; FIG. 10B
[2] = test system: Leigh syndrome patient cells (LS^ND3); assay: Test I: suppression of BSO-induced cell death, Leigh syndrome patient cells; format: cell-based, human; settings: 100 μM BSO alone or coadded with inhibitor (1 μM; GSK872 1-10 μM, v-VAD 1, 10 μM), 48 hours; FIG. 1B, 3B
Source text: (§1) In the drawing, the abscissa depicts test compounds, and the ordinate depicts the cell viability (%) of each treated plot when the number of live cells in a control non-supplemented with BSO is defined as 100%.
as §1

[3] = test system: mitochondrial hepatopathy patient cells (ME263-1); assay: Test I: suppression of BSO-induced cell death, mitochondrial hepatopathy patient cells; settings: 50-200 μM BSO coadded with drug; FIG. 6B
SH-SY5Y cells = assay: Test VI: inhibition of rotenone-induced neuronal death (LDH assay); format: cell-based, human; set-up: key: ++: the case where a concentration-dependent inhibitory effect on rotenone-induced cell death was able to be confirmed twice; +: In the third test, the case where the concentration-dependent inhibitory effect was able to be confirmed; ±: the case where no concentration-dependent inhibitory effect was able to be confirmed; −: The case where any inhibitory effect on rotenone-induced cell death was able to be confirmed in none of the two tests; settings: rotenone 1 μM, compound 10 nM-10 μM (Apo 0.1 nM-10 μM), 48 hours
Protocol: After the completion of culture, rotenone-induced cell death was measured using Cytotoxicity LDH Assay Kit-WST (Dojindo Laboratories). […] The test was conducted twice, and the case where a concentration-dependent inhibitory effect on rotenone-induced cell death was able to be confirmed twice was rated as (++). If the inhibitory effect was confirmed in one of the two tests and no inhibitory effect was confirmed in the other test, the third test was conducted. In the third test, the case where the concentration-dependent inhibitory effect was able to be confirmed was rated as (+), and the case where no concentration-dependent inhibitory effect was able to be confirmed was rated as (±). The case where any inhibitory effect on rotenone-induced cell death was able to be confirmed in none of the two tests was rated as (−).

[4] = test system: mitochondrial cardiomyopathy patient cells (ME250-1); assay: Test I: suppression of BSO-induced cell death, mitochondrial cardiomyopathy patient cells; format: cell-based, human; settings: 50-200 μM BSO alone or coadded with drug; FIG. 5B
[5] = test system: mitochondrial cardiomyopathy patient cells (ME250-1); assay: Test I: suppression of RSL-3-induced cell death, mitochondrial cardiomyopathy patient cells; format: cell-based, human; settings: 10-140 nM RSL-3 alone or coadded with drug; FIG. 8B
Source text: (§2) In the drawing, the abscissa depicts test compounds, and the ordinate depicts the cell viability (%) of each treated plot when the number of live cells in a control non-supplemented with RSL-3 is defined as 100%.

[6] = test system: Leigh syndrome patient cells (LS^ND3); assay: Test I: suppression of RSL-3-induced cell death, Leigh syndrome patient cells; format: cell-based, human; settings: 50 nM RSL-3 alone or coadded with inhibitor, 48 hours, FIG. 2B, 4B
Source text: as §2, §2

[7] = test system: mitochondrial hepatopathy patient cells (ME263-1); assay: Test I: suppression of RSL-3-induced cell death, mitochondrial hepatopathy patient cells; format: cell-based, human; settings: 10-140 nM RSL-3 coadded with drug; FIG. 9B
[8] = test system: Kearns-Sayre syndrome (KSS) patient cells (ME130-1); assay: Test I: suppression of BSO-induced cell death, KSS patient cells; settings: BSO coadded with drug; FIG. 7B
[9] = test system: human liver cancer cell line (Huh7); assay: Test V: suppression of RSL-3-induced cell death in liver cancer cell system (LDH, MTT); format: cell-based; set-up: key to LDH (LDH activity, cell death): relative to control without RSL-3 (= 1); settings: for viability at 1 µM: Homo sapiens, Huh-7, read-out: MTT (cell proliferation and cell viability); for viability at 1 µM / LDH (LDH activity, cell death) / MTT (cell proliferation and cell viability): Huh7, test compound 1 μM (GSK872 5 μM) 1 hour, then RSL-3 0.5 μM 24 hours, relative value, control non-supplemented with RSL-3 = 1; for cell death induced by RSL-3 (in words): Huh7, RSL-3 0.5 μM
Protocol: The ferroptosis inducer used was RSL-3.
At the stage where 70% confluency was attained, the medium was replaced with the medium for the test, and DMSO or each test compound (final concentration of GSK872: 5 μM, and final concentration of the other compounds: 1 μM) was added to the cells in each well, which were then cultured for 1 hour. Then, the ferroptosis inducer (final concentration: 0.5 μM) was added to the cells in each well, which were then cultured for 24 hours. After the completion of culture, cell death suppressive activity was measured with lactate dehydrogenase (LDH) activity as an index while cell proliferation and cell viability were measured with activity of reducing yellow tetrazolium salt (MTT) into formazan as an index.
The values in the table are relative values when the LDH activity and MTT value of a control non-supplemented with RSL-3 are each defined as 1.

[10] = test system: normal cells (Promo1 cells); assay: Test I: RSL-3 and test compounds on normal cells; format: cell-based, human; settings: RSL-3 alone or coadded with inhibitor, 48 hours; FIG. 4A, 8A
Source text: as §2, §2, §2

dopamine D2 receptor = dopamine D2 receptor (Homo sapiens (Human), UniProt P14416); assay: Test IV: dopamine D2 receptor binding activity (GeneBLAzer D2-Gqo5-NEAT-bla CHO-K1 Cell-based Assay); settings: for Dopamine D2 receptor binding activity, Activity intensity: CHO-K1 reporter cells, 5 hours
Sequence of dopamine D2 receptor (P14416 whole entry): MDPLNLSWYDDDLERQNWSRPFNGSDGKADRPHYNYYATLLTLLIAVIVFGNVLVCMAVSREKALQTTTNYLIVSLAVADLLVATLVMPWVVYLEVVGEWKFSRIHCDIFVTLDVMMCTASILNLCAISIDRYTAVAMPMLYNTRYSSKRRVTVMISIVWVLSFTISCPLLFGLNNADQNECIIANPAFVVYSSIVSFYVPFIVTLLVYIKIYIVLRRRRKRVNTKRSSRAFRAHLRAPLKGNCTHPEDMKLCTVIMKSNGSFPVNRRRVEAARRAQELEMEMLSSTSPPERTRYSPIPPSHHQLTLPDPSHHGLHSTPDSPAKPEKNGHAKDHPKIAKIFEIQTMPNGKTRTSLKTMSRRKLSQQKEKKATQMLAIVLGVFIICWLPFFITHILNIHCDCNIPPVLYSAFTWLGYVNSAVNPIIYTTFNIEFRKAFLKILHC
Protocol: In this test, the dopamine D2 receptor binding activity of each test compound was measured using GeneBLAzer D2-Gqo5-NEAT-bla CHO-K1 Cell-based Assay (Thermo Fisher Scientific, Inc.). The CHO cells are designed such that a signal transduction pathway is activated by addition of a drug to express a reporter gene (P lactamase). […] Therefore, the binding activity of the test compound can be measured by measuring a blue fluorescence/green fluorescence ratio. The CHO cells were inoculated at 10,000 cells/well to a 384-well plate and cultured for 16 to 20 hours in a CO2 incubator. […] A substrate mix was added to the cells and incubated at room temperature for 2 hours. […] The respective EC50 values of the test compounds were determined from the measured fluorescence ratios using GraphPad Prism 8.

[11] = test system: MELAS patient cells (ME169); assay: Test III: suppression of RSL-3-induced ferroptosis, MELAS patient cells; format: cell-based, human; settings: 100 nM RSL-3 coadded with test compound; FIG. 35
Source text: (§3) Apomorphine and idebenone approved as a therapeutic drug for Leber's hereditary optic neuropathy in the Europe were used as control drugs.
(§4) In the drawing, A depicts the results obtained using compounds D8, D9, D10, D18, D20, D26, and D36, and B depicts the results obtained using compounds D37, D38, D39, D40, D41, D42, and D43. In the drawing, the abscissa depicts test compounds, and the ordinate depicts the cell viability (%) of each treated plot when the number of live cells in a control non-supplemented with RSL-3 is defined as 100%.

[12] = test system: MELAS patient cells (ME169); assay: Test III: suppression of BSO-induced ferroptosis, MELAS patient cells; format: cell-based, human; settings: 80 μM BSO coadded with test compound; FIG. 33
Source text: as §3
as §4, with “BSO” for “RSL-3”

[13] = test system: Leigh syndrome patient cells (KCMC10); assay: Test III: suppression of BSO-induced ferroptosis, Leigh syndrome patient cells; format: cell-based, human; settings: for cell death ascribable to ferroptosis induced by BSO: 100 μM BSO coadded with test compound, FIG. 32; for EC50: Homo sapiens, read-out: EC50 (50% effective concentration of the suppressive effect on cell death ascribable to ferroptosis induced by BSO); for EC50 / ferroptosis inhibitory effect (judged from EC50 value): Leigh syndrome patient cells (KCMC10), BSO; for ferroptosis inhibitory effect (judged from EC50 value): Table 3
Source text: as §3
as §4, with “BSO” for “RSL-3”

[14] = test system: Leigh syndrome patient cells (KCMC10); assay: Test III: suppression of RSL-3-induced ferroptosis, Leigh syndrome patient cells; format: cell-based, human; settings: 100 nM RSL-3 coadded with test compound; FIG. 34
Source text: as §3, §4

CN1CCc2cccc3c2[C@H]1Cc1ccc(O)c(O)c1-3 [Apomorphine, apomorphine]
cell death induced by RSL-3 (cell viability) [1]: the same or similar results
cell death induced by BSO (cell viability) [2]: suppressed
cell death induced by BSO (cell viability) [3]: the same or similar results
Inhibitory effect on rotenone-induced cell death (SH-SY5Y cells): ±
cell death induced by BSO (cell viability) [4]: suppressed
cell death induced by RSL-3 (cell viability) [5]: suppressed
cell death induced by RSL-3 (cell viability) ([6]; listed as Apo): the same or similar results; also recorded: same or similar tendency as above was more strongly confirmed
cell death induced by RSL-3 (cell viability) [7]: the same or similar results
cell death induced by BSO (cell viability) [8]: the same or similar results
viability at 1 µM [9]: 67%
cell death induced by RSL-3 (in words) [9]: suppressed
LDH (LDH activity, cell death) [9]: 1.82
cell death (cell viability) in normal cells, RSL-3 [10]: suppressed
Dopamine D2 receptor binding activity, Activity intensity (dopamine D2 receptor): ++

CCCCS(=N)(=O)CCC(N)C(=O)O [BSO, L-buthionine-(S,R)-sulfoximine]
cell death induced by BSO (cell viability) [2]: induced
cell death induced by BSO (cell viability) [4]: induced

COc1ccc2c(c1OC)C[C@@H]1c3c(cc4c(c3-2)OCO4)CCN1C [D8]
cell death ascribable to ferroptosis induced by RSL-3 [11]: suppressed
cell death ascribable to ferroptosis induced by BSO [12]: markedly suppressed
cell death ascribable to ferroptosis induced by BSO [13]: markedly suppressed
EC50 [13]: 180 nM
ferroptosis inhibitory effect (judged from EC50 value) [13]: particularly high
Inhibitory effect on rotenone-induced cell death (SH-SY5Y cells): ++
viability at 1 µM [9]: 56%
LDH (LDH activity, cell death) [9]: 2.46
dopamine D2 receptor binding activity (in words) (dopamine D2 receptor): no or little
Dopamine D2 receptor binding activity, Activity intensity (dopamine D2 receptor): −
cell death ascribable to ferroptosis induced by RSL-3 [14]: suppressed

COc1cc2c3c(c1O)-c1c(ccc(OC)c1OC)CC3N(C)CC2 (centres unmarked) [D26]
cell death ascribable to ferroptosis induced by RSL-3 [11]: suppressed
cell death ascribable to ferroptosis induced by BSO [12]: markedly suppressed
cell death ascribable to ferroptosis induced by BSO [13]: markedly suppressed
EC50 [13]: 289 nM
Inhibitory effect on rotenone-induced cell death (SH-SY5Y cells): ±
viability at 1 µM [9]: 58%
LDH (LDH activity, cell death) [9]: 4.85
dopamine D2 receptor binding activity (in words) (dopamine D2 receptor): no or little
Dopamine D2 receptor binding activity, Activity intensity (dopamine D2 receptor): −
cell death ascribable to ferroptosis induced by RSL-3 [14]: suppressed

CCCCOc1ccc2c(c1O)-c1cccc3c1[C@@H](C2)N(C)CC3.Cl [D36]
cell death ascribable to ferroptosis induced by RSL-3 [11]: suppressed
cell death ascribable to ferroptosis induced by BSO [12]: markedly suppressed
cell death ascribable to ferroptosis induced by BSO [13]: markedly suppressed
EC50 [13]: 123 nM
ferroptosis inhibitory effect (judged from EC50 value) [13]: particularly high
Inhibitory effect on rotenone-induced cell death (SH-SY5Y cells): ++
viability at 1 µM [9]: 81%
LDH (LDH activity, cell death) [9]: 0.91
dopamine D2 receptor binding activity (in words) (dopamine D2 receptor): no or little
Dopamine D2 receptor binding activity, Activity intensity (dopamine D2 receptor): −
cell death ascribable to ferroptosis induced by RSL-3 [14]: suppressed

CC(=O)N(O)CCCCCNC(=O)CCC(=O)N(O)CCCCCNC(=O)CCC(=O)N(O)CCCCCN [DFO, deferoxamine]
cell death induced by BSO (cell viability) [2]: suppressed
cell death induced by RSL-3 (cell viability) [6]: the same or similar results

CCOC(=O)c1ccc(NC2CCCCC2)c(N)c1 [Fer-1, ferrostatin-1]
cell death induced by RSL-3 (cell viability) [1]: the same or similar results
cell death induced by BSO (cell viability) [2]: suppressed
cell death induced by RSL-3 (cell viability) [5]: suppressed
cell death induced by RSL-3 (cell viability) [6]: the same or similar results; also recorded: same or similar tendency as above was more strongly confirmed
cell death induced by RSL-3 (cell viability) [7]: the same or similar results
cell death induced by RSL-3 (in words) [9]: suppressed
LDH (LDH activity, cell death) [9]: 2.50
MTT (cell proliferation and cell viability) [9]: 0.86
cell death (cell viability) in normal cells, RSL-3 [10]: suppressed

CC(C)S(=O)(=O)c1ccc2nccc(Nc3ccc4scnc4c3)c2c1 [GSK872]
cell death induced by BSO (cell viability) [2]: not suppressed
cell death induced by RSL-3 (cell viability) [6]: same or similar tendency as above was more strongly confirmed
viability at 1 µM [9]: 38%
LDH (LDH activity, cell death) [9]: 10.84
cell death (cell viability) in normal cells, RSL-3 [10]: similarly induced

COC1=C(OC)C(=O)C(CCCCCCCCCCO)=C(C)C1=O [Ide, idebenone]
cell death induced by BSO (cell viability) [3]: the same or similar results
cell death induced by BSO (cell viability) [4]: suppressed
cell death induced by BSO (cell viability) [8]: the same or similar results

Clc1cccc(CN=C2Nc3ccccc3NC23CCNCC3)c1 [Lip-1, liproxstatin]
cell death induced by BSO (cell viability) [2]: suppressed
cell death induced by RSL-3 (cell viability) [6]: the same or similar results

COC(=O)c1ccc([C@@H]2c3[nH]c4ccccc4c3C[C@@H](C(=O)OC)N2C(=O)CCl)cc1 [RSL-3, reference compound]
cell death induced by RSL-3 (cell viability) [5]: induced
cell death induced by RSL-3 (in words) [9]: induced
LDH (LDH activity, cell death) [9]: 10.67
MTT (cell proliferation and cell viability) [9]: 0.45
cell death (cell viability) in normal cells, RSL-3 [10]: induced
